{
  "source": "patent US7244731B2",
  "about": "“6-Methylpyridine derivatives, method for preparing thereof and antiviral pharmaceutical composition comprising the same” (B & C Biopharm, priority 2002, dated 2007)",
  "key": {"[1]": {"target": "T1, HCV RNA polymerase (RNA dependent RNA polymerase, NS5B) (Hepatitis C virus genotype 1b, UniProt P26663)", "T1 construct": "NS5B region (1773 bps) was amplified by PCR and cloned into pVLHIS; (His)6; made in house; host or cells: Sf9 insect cells infected with recombinant baculovirus (pVLHIS-NS5B)", "T1 sequence (P26663 2420-3010)": "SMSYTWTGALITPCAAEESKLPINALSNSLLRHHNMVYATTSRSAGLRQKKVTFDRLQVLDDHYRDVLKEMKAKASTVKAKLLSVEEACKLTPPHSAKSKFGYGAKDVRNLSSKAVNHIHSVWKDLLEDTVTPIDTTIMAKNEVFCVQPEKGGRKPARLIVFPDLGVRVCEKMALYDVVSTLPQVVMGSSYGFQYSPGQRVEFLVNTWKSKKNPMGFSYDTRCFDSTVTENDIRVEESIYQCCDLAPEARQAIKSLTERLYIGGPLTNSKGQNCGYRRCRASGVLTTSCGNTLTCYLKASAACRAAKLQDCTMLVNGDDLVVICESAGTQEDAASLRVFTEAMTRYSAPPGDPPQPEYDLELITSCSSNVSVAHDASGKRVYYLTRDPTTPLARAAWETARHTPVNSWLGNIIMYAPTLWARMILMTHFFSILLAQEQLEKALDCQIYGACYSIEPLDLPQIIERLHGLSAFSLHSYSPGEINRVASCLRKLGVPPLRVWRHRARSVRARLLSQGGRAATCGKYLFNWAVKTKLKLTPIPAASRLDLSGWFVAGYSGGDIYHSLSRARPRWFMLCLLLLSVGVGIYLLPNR", "test": "Inhibitory effect on activity of recombinant HCV RNA polymerase in vitro", "type": "biochemical, Hepatitis C virus (HCV-1b type)", "method": "Test of Inhibitory Effect on Activity of HCV RNA Polymerase (RNA Dependent RNA Polymerase, NS5B) In Vitro\nThe following in vitro experiments were conducted to find out the effect of inhibition activity of compounds of the present invention against HCV RNA Polymerase (RNA dependent RNA polymerase, NS5B).\nHCV cDNA was obtained from the blood of HCV-1b type HCV patient and NS5B region (1773 bps) was amplified by PCR and cloned into pVLHIS, a baculovirus transfer vector, to prepare recombinant transfer vector. The prepared transfer vector and the wild-type AcNPV vector were cotransfected into Sf 9 cell line to yield recombinant baculovirus with the histidine-tagged recombinant vector pVLHIS-NS5B. Sufficiently cultured insect cells were infected with the resulting recombinant baculovirus and cultured in Grace' medium containing 10% FBS for 3–4 days. The culture broth was centrifuged to obtain only the infected cells. The cells were washed three times with PBS and resuspended in binding buffer [50 mM Na-phosphate (pH 8.0), 30 mM NaCl, 10 mM imidazole, 1 mM DTT, 10% glycerol, 1% NP-40], sonicated and the clearized lysate was obtained. Recombinant NS5B was purified by affinity column chromatography using a Ni-NTA His bind resin (Novagen) to produce pure NS5B protein. The (His)6-tagged NS5B was bound to Ni-NTA resin and washed with the binding buffer containing 50 mM imidazole. The bound NS5B was eluted with the binding buffer containing imidazole in a step-gradient manner (100–300 mM). The NS5B protein fractions were dialyzed against buffer [50 mM Tris-HCl, 50 mM NaCl, 1 mM DTT, […], 10% glycerol], followed by at −70° C. in a small aliquot.\nThe 3′UTR cDNA (220 bp) of HCV was obtained from 1b HCV RNA of the blood of a hepatitis C patient by PCR and cloned into pcDNA3 vector. Linearized DNA fragment containing 3′-UTR was prepared using the restriction enzyme, EcoRI and used as a temperate for in vitro transcription using T7 RNA ploymerase to prepare RNA fragment containing 3′-UTR.\nIn Vitro inhibitory activity of the compounds of the present invention against recombinant HCV RNA polymerase was measured as follows.\nA streptavidin-coated well plate was prepared suitable for the sample to be examined. 25 μl of 2× assay buffer [50 mM Tris-Cl (pH 7.5), 100 mM NaCl, 10 mM MgCl2, 20 mM KCl, 1 mM EDTA, 1 mM DTT] and 10 μl of purified HCV RNA polymerase 200 ng and 3′-UTR template RNA were added to each well. Then, 5 μl of the sample to be examined was added to have final concentrations of 10, 1, 0.1 and 0.01 μg/mL. […] The optical density (OD) was measured using an ELISA reader (Bio-Tek instrument Co.) at 405 nm. The inhibitory effect on the activity of HCV polymerase was calculated by subtracting the OD of the positive control without the sample."}, "[2]": {"test": "Cytotoxicity assay (MTT assay)", "type": "cell-based", "conditions": "human, HepG2 cells, HepG 2 cell line", "method": "To find out cytotoxicity of 6-methylpyridine derivative of the chemical formula 1, an in vitro experiment was conducted on the basis of the generally known MTT assay using HepG 2 cell line."}},
  "data": [
    {"compound": "Cc1ccc(C(=O)O)c(Nc2ccc(N3CCOCC3)cc2)n1", "note": "[Example 1, 6-methyl-2-[4-(4-morpholino)anilino] nicotinic acid]", "values": [
      {"measurement": "Inhibition of activity of HCV RNA polymerase (%)", "setting": "[1]; 0.01 μg/ml", "result": 46, "unit": "%"},
      {"measurement": "Inhibition of activity of HCV RNA polymerase (%)", "setting": "[1]; 0.1 μg/ml", "result": 65, "unit": "%"},
      {"measurement": "Inhibition of activity of HCV RNA polymerase (%)", "setting": "[1]; 1 μg/ml", "result": 82, "unit": "%"},
      {"measurement": "Inhibition of activity of HCV RNA polymerase (%)", "setting": "[1]; 10 μg/ml", "result": 99, "unit": "%"},
      {"measurement": "CC50", "setting": "[2]", "result": "> 100", "unit": "µg/mL"}
    ]}
  ]
}
